The source of these data is US8263617B2, “Chromen-2-one derivatives and their use as monoamine neurotransmitter re-uptake inhibitors” (Neurosearch A/S, priority 2006, dated 2012).

What all share (type): biochemical
Assay [1] addresses T1, reuptake of serotonine (5-HT) in synaptosomes (Rattus norvegicus, UniProt P31652).
T1 construct: in synaptosomes as described in WO 97/16451; from tissue
As to the kind of experiment: Inhibition of 5-HT reuptake in synaptosomes. As to conditions: 3H-5-HT, read-out: 5-HT-uptake IC50. The protocol:
(§1) A number of compounds were tested for their ability to inhibit the reuptake of the monoamine neurotransmitters dopamine (DA), noradrenaline (NA) and serotonine (5-HT) in synaptosomes as described in WO 97/16451.
(§2) The test values are given as IC50 (the concentration (μM) of the test substance which inhibits the specific binding of ^3H-DA, ^3H-NA, or ^3H-5-HT by 50%).

The target of assay [2] is T2, reuptake of dopamine (DA) in synaptosomes (Rattus norvegicus, UniProt P23977).
T2 construct: in synaptosomes as described in WO 97/16451; from tissue
T2 sequence (P23977 whole entry): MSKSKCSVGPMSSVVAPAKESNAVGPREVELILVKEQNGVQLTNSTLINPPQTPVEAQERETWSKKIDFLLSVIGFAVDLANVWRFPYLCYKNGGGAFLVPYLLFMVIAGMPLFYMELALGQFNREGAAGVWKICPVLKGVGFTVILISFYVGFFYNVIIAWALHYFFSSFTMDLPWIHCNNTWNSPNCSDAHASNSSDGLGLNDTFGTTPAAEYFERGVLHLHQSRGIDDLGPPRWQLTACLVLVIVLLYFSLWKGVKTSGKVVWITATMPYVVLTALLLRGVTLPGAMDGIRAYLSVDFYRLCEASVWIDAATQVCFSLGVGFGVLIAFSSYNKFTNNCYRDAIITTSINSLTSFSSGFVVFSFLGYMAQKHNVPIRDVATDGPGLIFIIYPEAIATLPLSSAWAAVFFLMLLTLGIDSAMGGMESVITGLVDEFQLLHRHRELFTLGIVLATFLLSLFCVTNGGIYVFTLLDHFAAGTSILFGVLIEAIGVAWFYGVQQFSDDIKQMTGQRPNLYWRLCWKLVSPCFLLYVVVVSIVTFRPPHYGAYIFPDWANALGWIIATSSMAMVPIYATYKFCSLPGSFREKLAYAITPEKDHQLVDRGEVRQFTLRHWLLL
Briefly: Inhibition of DA reuptake in synaptosomes. As to conditions: 3H-DA, read-out: DA-uptake IC50. The protocol:
as §1, §2

In assay [3] the target is T3, reuptake of noradrenaline (NA) in synaptosomes (Rattus norvegicus, UniProt Q63380).
T3 construct: in synaptosomes as described in WO 97/16451; from tissue
T3 sequence (Q63380 1-617): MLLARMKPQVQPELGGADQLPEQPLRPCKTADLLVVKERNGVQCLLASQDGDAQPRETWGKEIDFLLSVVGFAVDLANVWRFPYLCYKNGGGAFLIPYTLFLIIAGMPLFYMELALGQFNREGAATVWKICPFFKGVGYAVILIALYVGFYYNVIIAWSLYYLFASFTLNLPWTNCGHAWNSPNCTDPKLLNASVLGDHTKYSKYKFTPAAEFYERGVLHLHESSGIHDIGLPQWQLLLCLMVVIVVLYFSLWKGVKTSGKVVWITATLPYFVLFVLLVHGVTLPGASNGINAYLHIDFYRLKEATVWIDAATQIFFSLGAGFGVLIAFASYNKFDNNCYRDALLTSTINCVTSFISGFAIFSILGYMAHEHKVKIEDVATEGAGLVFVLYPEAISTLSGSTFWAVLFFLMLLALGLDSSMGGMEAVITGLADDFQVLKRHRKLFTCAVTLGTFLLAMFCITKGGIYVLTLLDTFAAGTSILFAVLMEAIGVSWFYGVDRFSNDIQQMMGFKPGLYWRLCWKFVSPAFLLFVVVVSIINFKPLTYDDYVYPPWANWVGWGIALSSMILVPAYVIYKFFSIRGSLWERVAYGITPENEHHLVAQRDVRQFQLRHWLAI
Briefly: Inhibition of NA reuptake in synaptosomes. As to conditions: 3H-NA, read-out: NA-uptake IC50. The protocol: as §1, §2

Molecules are shown by their SMILES. Structures can show the parent of a compound that is named as a salt.

T1 sequence (P31652 whole entry): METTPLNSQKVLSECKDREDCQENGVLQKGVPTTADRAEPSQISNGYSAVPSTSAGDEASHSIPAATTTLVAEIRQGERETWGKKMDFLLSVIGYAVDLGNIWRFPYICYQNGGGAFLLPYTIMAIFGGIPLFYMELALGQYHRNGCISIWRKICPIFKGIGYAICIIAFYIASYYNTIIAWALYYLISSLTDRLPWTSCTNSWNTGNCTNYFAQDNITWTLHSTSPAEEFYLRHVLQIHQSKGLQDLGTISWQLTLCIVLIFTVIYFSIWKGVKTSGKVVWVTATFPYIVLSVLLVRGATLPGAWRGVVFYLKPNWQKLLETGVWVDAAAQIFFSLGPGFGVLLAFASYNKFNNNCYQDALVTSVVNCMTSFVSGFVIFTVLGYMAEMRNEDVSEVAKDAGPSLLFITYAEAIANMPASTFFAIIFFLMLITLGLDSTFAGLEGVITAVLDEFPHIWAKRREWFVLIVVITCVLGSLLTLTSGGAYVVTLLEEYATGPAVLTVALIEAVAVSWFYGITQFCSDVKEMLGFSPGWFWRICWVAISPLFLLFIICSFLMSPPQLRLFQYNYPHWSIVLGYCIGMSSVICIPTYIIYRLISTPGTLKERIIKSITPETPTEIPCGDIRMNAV

As for `O=c1oc2cc(OC3CC4CCC(C3)N4)ccc2cc1-c1cc2ccccc2o1` [3rd Compound of Method A, exo-7-[(1S,3S,5R)-(8-Aza-bicyclo[3.2.1]oct-3-yl)oxy]-3-benzofuran-2-yl-chromen-2-one hydrochloric acid salt], the results for the IC50 in assay [1], in assay [2] and in assay [3] were 9.1 nM, 700 nM and 840 nM, respectively.

Regarding `O=c1oc2cc(OC3CC4CCC(C3)N4)ccc2cc1-c1ccoc1` [2nd Compound of Method A, exo-7-[(1S,3S,5R)-(8-Aza-bicyclo[3.2.1]oct-3-yl)oxy]-3-furan-3-yl-chromen-2-one hydrochloric acid salt], the half-maximal inhibitory concentration (IC50) in assay [1] is 10 nM; in assay [2], 9.9 nM; in assay [3], 0.48 nM.

In the case of `O=c1oc2cc(OC3CC4CCC(C3)N4)ccc2cc1-c1ccco1` [1st Compound of Method A, exo-7-[(1S,3S,5R)-(8-Aza-bicyclo[3.2.1]oct-3-yl)oxy]-3-furan-2-yl-chromen-2-one hydrochloric acid salt], the IC50 came to 7.7 nM in assay [1], 34 nM in assay [2] and 4.3 nM in assay [3].
